Test results as given in US9580390B2, “Indazole compounds as kinase inhibitors and method of treating cancer with same” (University Health Network, priority 2011, dated 2017).

Legend:
[1] = target: T1, human TTK (Homo sapiens, UniProt P33981); experiment: TTK inhibition assay (indirect ELISA); format: biochemical; conditions: read-out: TTK IC50 Range
T1 construct: amino terminal GST fusion of full length human TTK; purchased Invitrogen
T1 sequence (P33981 1-857): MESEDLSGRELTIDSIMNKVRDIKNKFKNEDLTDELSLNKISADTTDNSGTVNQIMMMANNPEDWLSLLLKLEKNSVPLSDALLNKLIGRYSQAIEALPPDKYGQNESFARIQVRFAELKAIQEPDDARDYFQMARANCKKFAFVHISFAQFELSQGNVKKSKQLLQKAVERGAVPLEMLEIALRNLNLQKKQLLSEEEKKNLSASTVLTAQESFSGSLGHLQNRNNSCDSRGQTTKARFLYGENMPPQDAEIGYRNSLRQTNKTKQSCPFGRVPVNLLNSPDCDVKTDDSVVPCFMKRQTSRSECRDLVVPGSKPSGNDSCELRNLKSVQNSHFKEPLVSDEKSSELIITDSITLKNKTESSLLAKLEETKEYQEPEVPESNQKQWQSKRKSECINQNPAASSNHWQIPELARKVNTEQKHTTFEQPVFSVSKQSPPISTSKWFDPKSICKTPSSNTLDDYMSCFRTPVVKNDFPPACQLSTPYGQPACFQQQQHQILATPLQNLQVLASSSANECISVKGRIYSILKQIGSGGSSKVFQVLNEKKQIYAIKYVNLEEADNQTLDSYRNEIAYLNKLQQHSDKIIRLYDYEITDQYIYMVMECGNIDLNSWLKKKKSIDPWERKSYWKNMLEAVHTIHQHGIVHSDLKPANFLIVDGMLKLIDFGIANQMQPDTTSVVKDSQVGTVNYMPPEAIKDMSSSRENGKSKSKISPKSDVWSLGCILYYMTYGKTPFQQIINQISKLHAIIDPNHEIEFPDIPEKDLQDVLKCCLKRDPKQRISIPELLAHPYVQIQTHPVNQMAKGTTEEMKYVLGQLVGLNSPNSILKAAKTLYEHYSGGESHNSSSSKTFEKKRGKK

[2] = system: colon cancer cells (HCT116); experiment: Cancer cell line growth inhibition (SRB assay); format: cell-based; conditions: Homo sapiens, HCT-116; read-out: Cancer Cell Line GI50 Range HCT116
[3] = system: ovarian cancer cells (PA-1); experiment: Cancer cell line growth inhibition (SRB assay); format: cell-based; conditions: Homo sapiens, PA-1; read-out: Cancer Cell Line GI50 Range PA-1
[4] = system: TICs (Colon 12); experiment: Colon tumor-initiating cell growth inhibition (Alamar Blue); format: cell-based; conditions: 216 h; Colon 12 TICs, 9 days; read-out: Tumor Initiating Cell GI50 Range Colon 12
From the text: (§1) Materials and Methods: Non-tissue or tissue cultured treated T-75 flask and 96-well plates were purchased from VWR. Vitamin B-27 supplement, MEM NEAA (minimum essential medium non essential amino acids), sodium pyruvate, L-glutamine, N2 supplement, penicillin-streptomycin and fungizone/amphotericin B were obtained from Invitrogen. Lipid mixture, heparin and EGF were purchased from Sigma; bFGF from BD Biosciences. Tumor Initiating Cells (TICs) from colon were routinely maintained using non-tissue cultured treated T-75 flasks in DMEM:F12 medium containing 0.2×B-27 supplement, 4 ug/ml heparin, 1×MEM NEAA, 1× sodium pyruvate, 1 mM glutamine, 10 pg/ul bFGF, 20 pg/ul EGF, 1×N2 supplement, lipid mixture, penicillin-streptomycin and fungizone/amphotericin B. Ovarian TICs were routinely maintained using tissue cultured treated T-75 flasks in DMEM:F12 medium containing 1×B-27 supplement, 4 ug/ml heparin, 20 pg/ul bFGF, 20 pg/ul EGF and penicillin-streptomycin.
(§2) Assay Protocol: Compounds described herein were dissolved in DMSO and further diluted in cell culture medium for GI50 determination. Colon TICs were trypsinized and seeded into non-tissue cultured treated 96-well plates with 4,000 cells/well. After 24 h, compound was added into the cell culture at different concentrations, and the final concentration of DMSO was adjusted to 0.1%. Cells were then cultured at 37° C. for 9 days. Ovarian TICs were trypsinized and seeded into tissue cultured treated 96-well plates with 1,000 cells/well. After 24 h, compound was added into the cell culture at different concentrations, and the final concentration of DMSO was adjusted to 0.1%. Cells were then cultured at 37° C. for 6 days. Cell viability was assessed by Alamar Blue assay: 10 ul of Alamar Blue was added into each well. After 4 hours incubation at 37° C., fluorescence was recorded at excitation 544 and emission 590. GI50 (Growth inhibition) was calculated using GraphPad Prism 4.0 software.

[5] = system: TICs (Ovarian 2393A); experiment: Ovarian tumor-initiating cell growth inhibition (Alamar Blue); format: cell-based; conditions: 144 h; Ovarian 2393A TICs, 6 days; read-out: Tumor Initiating Cell GI50 Range Ovarain 2393A
From the text: as §1, §2

[6] = system: Breast cancer cells; experiment: Cancer cell line growth inhibition (SRB assay); format: cell-based; conditions: Homo sapiens; MDA-MB-468; read-out: Cancer Cell Line GI50 Range MDA-MB-468

Structure (SMILES)	IC50 [1] [nM]	GI50 [2] [nM]	GI50 [3] [nM]	GI50 [4] [nM]	GI50 [5] [nM]	GI50 [6] [nM]
CC(C)C(NC(=O)c1ccc2[nH]nc(-c3ccc(O[C@H]4C[C@H]5CC[C@@H](C4)N5C)cc3)c2c1)c1ccccc1Cl (stereo partly drawn) [Example A279, N-(1-(2-chlorophenyl)-2-methylpropyl)-3-(4-(((1R,3R,5S)-8-methyl-8-azabicyclo[3.2.1]octan-3-yl)oxy)phenyl)-1H-indazole-5-carboxamide]	< 100	< 100	< 100	100 to 500	100 to 500	< 100
CN1[C@@H]2CC[C@H]1C[C@@H](Oc1ccc(-c3n[nH]c4ccc(C(=O)NC(c5ccsc5)C5CCC5)cc34)cc1)C2 (stereo partly drawn) [Example A283, N-(cyclobutyl(thiophen-3-yl)methyl)-3-(4-(((1R,3R,5S)-8-methyl-8-azabicyclo[3.2.1]octan-3-yl)oxy)phenyl)-1H-indazole-5-carboxamide]	< 100	< 100	< 100	100 to 500	100 to 500	100 to 500
CC(C)C[C@H](NC(=O)c1ccc2[nH]nc(-c3ccc(N4[C@@H]5CC[C@H]4COC5)cc3)c2c1)c1ccccn1 [Example A303, 3-(4-((1R,5S)-3-oxa-8-azabicyclo[3.2.1]octan-8-yl)phenyl)-N-((S)-3-methyl-1-(pyridin-2-yl)butyl)-1H-indazole-5-carboxamide]	< 100	< 100	< 100	< 100	< 100	< 100
O=C(N[C@H](c1ccccn1)C1CCCC1)c1ccc2[nH]nc(-c3ccc(N4CC(C5COC5)C4)cc3)c2c1 [Example A309, (S)-N-(cyclopentyl(pyridin-2-yl)methyl)-3-(4-(3-(oxetan-3-yl)azetidin-1-yl)phenyl)-1H-indazole-5-carboxamide]	< 100	< 100	< 100	< 100	< 100	< 100
CC(C)[C@H](NC(=O)c1ccc2[nH]nc(-c3ccc(N4CC(C5COC5)C4)cc3)c2c1)c1ccccc1Cl [Example A310, (S)-N-(1-(2-chlorophenyl)-2-methylpropyl)-3-(4-(3-(oxetan-3-yl)azetidin-1-yl)phenyl)-1H-indazole-5-carboxamide]	< 100	< 100	< 100	< 100	< 100	< 100
O=C(N[C@H](c1ccccn1)C1CC1)c1ccc2[nH]nc(-c3ccc(N4CC(C5COC5)C4)cc3)c2c1 [Example A311, (S)-N-(cyclopropyl(pyridin-2-yl)methyl)-3-(4-(3-(oxetan-3-yl)azetidin-1-yl)phenyl)-1H-indazole-5-carboxamide]	< 100	< 100	< 100	< 100	< 100	< 100
CC(C)C[C@H](NC(=O)c1ccc2[nH]nc(-c3ccc(N4CC(N5CCOCC5)C4)cc3)c2c1)c1ccccc1Cl [Example A315, (S)-N-(1-(2-chlorophenyl)-3-methylbutyl)-3-(4-(3-morpholinoazetidin-1-yl)phenyl)-1H-indazole-5-carboxamide]	< 100	< 100	< 100	< 100	100 to 500	100 to 500
O=C(NC(c1ccccc1)C1CC1)c1ccc2[nH]nc(-c3ccc(O[C@H]4C[C@H]5CC[C@@H](C4)N5C4COC4)cc3)c2c1 (stereo partly drawn) [Example A321, N-(cyclopropyl(phenyl)methyl)-3-(4-(((1R,3R,5S)-8-(oxetan-3-yl)-8-azabicyclo[3.2.1]octan-3-yl)oxy)phenyl)-1H-indazole-5-carboxamide]	< 100	100 to 500	100 to 500	< 100	100 to 500	100 to 500
CC(C)C(NC(=O)c1ccc2[nH]nc(-c3ccc(O[C@H]4C[C@H]5CC[C@@H](C4)N5C4COC4)cc3)c2c1)c1ccccn1 (stereo partly drawn) [Example A325, N-(2-methyl-1-(pyridin-2-yl)propyl)-3-(4-(((1R,3R,5S)-8-(oxetan-3-yl)-8-azabicyclo[3.2.1]octan-3-yl)oxy)phenyl)-1H-indazole-5-carboxamide]	< 100	100 to 500	100 to 500	< 100	100 to 500	100 to 500
O=C(NC(c1ccsc1)C1CCC1)c1ccc2[nH]nc(-c3ccc(O[C@H]4C[C@H]5CC[C@@H](C4)N5C4COC4)cc3)c2c1 (stereo partly drawn) [Example A326, N-(cyclobutyl(thiophen-3-yl)methyl)-3-(4-(((1R,3R,5S)-8-(oxetan-3-yl)-8-azabicyclo[3.2.1]octan-3-yl)oxy)phenyl)-1H-indazole-5-carboxamide]	< 100	100 to 500	100 to 500	< 100	< 100	100 to 500
CC(C)CC(NC(=O)c1ccc2[nH]nc(-c3ccc(O[C@H]4C[C@H]5CC[C@@H](C4)N5C=O)cc3)c2c1)c1ccccn1 (stereo partly drawn) [Example A339]	< 100	< 100	< 100	< 100	< 100	< 100
CCC[C@H](NC(=O)c1ccc2[nH]nc(-c3ccc(OC4CC5CCC(C4)N5C=O)cc3)c2c1)c1ccccc1 (stereo partly drawn) [Example A343, 3-(4-(((1R,3R,5S)-8-formyl-8-azabicyclo[3.2.1]octan-3-yl)oxy)phenyl)-N-((S)-1-phenylbutyl)-1H-indazole-5-carboxamide]	< 100	< 100	< 100	< 100	100 to 500	100 to 500
CC(C)[C@H](NC(=O)c1ccc2[nH]nc(-c3ccc(N4C5CCC4CC(O)C5)cc3)c2c1)c1ccccc1Cl (stereo partly drawn) [Example A356, N-((S)-1-(2-chlorophenyl)-2-methylpropyl)-3-(4-((1R,3S,5S)-3-hydroxy-8-azabicyclo[3.2.1]octan-8-yl)phenyl)-1H-indazole-5-carboxamide]	< 100	< 100	< 100	< 100	< 100	< 100
O=C(N[C@H](c1ccccn1)C1CCCC1)c1ccc2[nH]nc(-c3ccc(N4C5CCC4CC(O)C5)cc3)c2c1 (stereo partly drawn) [Example A360, N-((S)-cyclopentyl(pyridin-2-yl)methyl)-3-(4-((1R,3S,5S)-3-hydroxy-8-azabicyclo[3.2.1]octan-8-yl)phenyl)-1H-indazole-5-carboxamide]	< 100	< 100	< 100	< 100	< 100	< 100
O=C(N[C@H](c1ccccc1)C1CC1)c1ccc2[nH]nc(-c3ccc(N4C5CCC4CC(O)C5)cc3)c2c1 (stereo partly drawn) [Example A362, N-((S)-cyclopropyl(phenyl)methyl)-3-(4-((1R,3S,5S)-3-hydroxy-8-azabicyclo[3.2.1]octan-8-yl)phenyl)-1H-indazole-5-carboxamide]	< 100	< 100	< 100	< 100	< 100	< 100
CC(C)C[C@H](NC(=O)c1ccc2[nH]nc(-c3ccc(N4C5CCC4CC(O)C5)cc3)c2c1)c1ccccc1 (stereo partly drawn) [Example A368, 3-(4-((1R,3S,5S)-3-hydroxy-8-azabicyclo[3.2.1]octan-8-yl)phenyl)-N-((S)-3-methyl-1-phenylbutyl)-1H-indazole-5-carboxamide]	< 100	< 100	< 100	< 100	100 to 500	100 to 500
